# Reference: US20100041089A1, “IMPROVED METHOD FOR DETECTING CHEMICAL […]” (priority 2006, published 2010)
# System: yeast genes (expressed mRNA)
# Test: DNA chip measurement of expressed mRNA of yeast genes after culture with a toxic chemical substance
# Assay type: cell-based, Saccharomyces cerevisiae S288C
# Summary of the method: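 Each expression value is the mRNA level in chemical-treated yeast divided by that in untreated yeast, from Cy3/Cy5 fluorescence on a whole-genome chip. Log-phase S288C cells in YPD at 25° C had received a sublethal, growth-inhibiting dose for two hours. Intensity denotes control expression relative to the all-gene mean.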
compound,measurement,setting,value
"O=[N+]([O-])c1cc[n+]([O-])c2ccccc12 [(5), 4-Nitroquinoline-N-oxide]",The level of expressed mRNA in the presence of chemical substance/The level of expressed mRNA in the absence of chemical substance,"yeast gene YAL053W, cultured two hours with substance",0.8
same,The level of expressed mRNA in the presence of chemical substance/The level of expressed mRNA in the absence of chemical substance,"yeast gene YBL048W, cultured two hours with substance",1.3
same,The level of expressed mRNA in the presence of chemical substance/The level of expressed mRNA in the absence of chemical substance,"yeast gene YBL107C, cultured two hours with substance",1.2
same,The level of expressed mRNA in the presence of chemical substance/The level of expressed mRNA in the absence of chemical substance,"yeast gene YDL072C, cultured two hours with substance",1.4
same,The level of expressed mRNA in the presence of chemical substance/The level of expressed mRNA in the absence of chemical substance,"yeast gene YDL204W, cultured two hours with substance",1.0
same,The level of expressed mRNA in the presence of chemical substance/The level of expressed mRNA in the absence of chemical substance,"yeast gene YDL222C, cultured two hours with substance",1.0
same,The level of expressed mRNA in the presence of chemical substance/The level of expressed mRNA in the absence of chemical substance,"yeast gene YDR003W, cultured two hours with substance",1.8
same,The level of expressed mRNA in the presence of chemical substance/The level of expressed mRNA in the absence of chemical substance,"yeast gene YDR330W, cultured two hours with substance",1.2
same,The level of expressed mRNA in the presence of chemical substance/The level of expressed mRNA in the absence of chemical substance,"yeast gene YDR357C, cultured two hours with substance",2.0
same,The level of expressed mRNA in the presence of chemical substance/The level of expressed mRNA in the absence of chemical substance,"yeast gene YDR391C, cultured two hours with substance",1.2
same,The level of expressed mRNA in the presence of chemical substance/The level of expressed mRNA in the absence of chemical substance,"yeast gene YDR411C, cultured two hours with substance",1.6
same,The level of expressed mRNA in the presence of chemical substance/The level of expressed mRNA in the absence of chemical substance,"yeast gene YDR511W, cultured two hours with substance",1.0
same,The level of expressed mRNA in the presence of chemical substance/The level of expressed mRNA in the absence of chemical substance,"yeast gene YDR531W, cultured two hours with substance",2.0
same,The level of expressed mRNA in the presence of chemical substance/The level of expressed mRNA in the absence of chemical substance,"yeast gene YDR539W, cultured two hours with substance",1.8
same,The level of expressed mRNA in the presence of chemical substance/The level of expressed mRNA in the absence of chemical substance,"yeast gene YDR545W, cultured two hours with substance",1.4
same,The level of expressed mRNA in the presence of chemical substance/The level of expressed mRNA in the absence of chemical substance,"yeast gene YEL001C, cultured two hours with substance",0.9
same,The level of expressed mRNA in the presence of chemical substance/The level of expressed mRNA in the absence of chemical substance,"yeast gene YER004W, cultured two hours with substance",1.5
same,The level of expressed mRNA in the presence of chemical substance/The level of expressed mRNA in the absence of chemical substance,"yeast gene YER035W, cultured two hours with substance",1.5
same,The level of expressed mRNA in the presence of chemical substance/The level of expressed mRNA in the absence of chemical substance,"yeast gene YER044C, cultured two hours with substance",1.8
same,The level of expressed mRNA in the presence of chemical substance/The level of expressed mRNA in the absence of chemical substance,"yeast gene YER079W, cultured two hours with substance",0.8
same,The level of expressed mRNA in the presence of chemical substance/The level of expressed mRNA in the absence of chemical substance,"yeast gene YER106W, cultured two hours with substance",1.6
same,The level of expressed mRNA in the presence of chemical substance/The level of expressed mRNA in the absence of chemical substance,"yeast gene YER158C, cultured two hours with substance",0.8
same,The level of expressed mRNA in the presence of chemical substance/The level of expressed mRNA in the absence of chemical substance,"yeast gene YER163C, cultured two hours with substance",0.8
same,The level of expressed mRNA in the presence of chemical substance/The level of expressed mRNA in the absence of chemical substance,"yeast gene YER175C, cultured two hours with substance",0.9
same,The level of expressed mRNA in the presence of chemical substance/The level of expressed mRNA in the absence of chemical substance,"yeast gene YFL006W, cultured two hours with substance",1.4
same,The level of expressed mRNA in the presence of chemical substance/The level of expressed mRNA in the absence of chemical substance,"yeast gene YFL010C, cultured two hours with substance",1.3
same,The level of expressed mRNA in the presence of chemical substance/The level of expressed mRNA in the absence of chemical substance,"yeast gene YFL024C, cultured two hours with substance",1.1
same,The level of expressed mRNA in the presence of chemical substance/The level of expressed mRNA in the absence of chemical substance,"yeast gene YFL032W, cultured two hours with substance",0.9
same,The level of expressed mRNA in the presence of chemical substance/The level of expressed mRNA in the absence of chemical substance,"yeast gene YGL037C, cultured two hours with substance",0.9
same,The level of expressed mRNA in the presence of chemical substance/The level of expressed mRNA in the absence of chemical substance,"yeast gene YGL047W, cultured two hours with substance",1.3
same,The level of expressed mRNA in the presence of chemical substance/The level of expressed mRNA in the absence of chemical substance,"yeast gene YGL053W, cultured two hours with substance",2.0
same,The level of expressed mRNA in the presence of chemical substance/The level of expressed mRNA in the absence of chemical substance,"yeast gene YGL121C, cultured two hours with substance",0.9
same,The level of expressed mRNA in the presence of chemical substance/The level of expressed mRNA in the absence of chemical substance,"yeast gene YGL199C, cultured two hours with substance",0.7
same,The level of expressed mRNA in the presence of chemical substance/The level of expressed mRNA in the absence of chemical substance,"yeast gene YGR101W, cultured two hours with substance",1.2
same,The level of expressed mRNA in the presence of chemical substance/The level of expressed mRNA in the absence of chemical substance,"yeast gene YGR110W, cultured two hours with substance",0.9
same,The level of expressed mRNA in the presence of chemical substance/The level of expressed mRNA in the absence of chemical substance,"yeast gene YGR130C, cultured two hours with substance",1.4
same,The level of expressed mRNA in the presence of chemical substance/The level of expressed mRNA in the absence of chemical substance,"yeast gene YGR154C, cultured two hours with substance",1.2
same,The level of expressed mRNA in the presence of chemical substance/The level of expressed mRNA in the absence of chemical substance,"yeast gene YGR221C, cultured two hours with substance",0.9
same,The level of expressed mRNA in the presence of chemical substance/The level of expressed mRNA in the absence of chemical substance,yeast gene YHR053C (detoxification protein gene),2.9
same,The level of expressed mRNA in the presence of chemical substance/The level of expressed mRNA in the absence of chemical substance,yeast gene YHR055C (detoxification protein gene),2.7
same,The level of expressed mRNA in the presence of chemical substance/The level of expressed mRNA in the absence of chemical substance,yeast gene YHR136C,2.4
same,The level of expressed mRNA in the presence of chemical substance/The level of expressed mRNA in the absence of chemical substance,"yeast gene YHR138C, cultured two hours with substance",1.5
same,The level of expressed mRNA in the presence of chemical substance/The level of expressed mRNA in the absence of chemical substance,"yeast gene YHR199C, cultured two hours with substance",1.2
same,The level of expressed mRNA in the presence of chemical substance/The level of expressed mRNA in the absence of chemical substance,"yeast gene YHR209W, cultured two hours with substance",1.8
same,The level of expressed mRNA in the presence of chemical substance/The level of expressed mRNA in the absence of chemical substance,"yeast gene YIL023C, cultured two hours with substance",1.3
same,The level of expressed mRNA in the presence of chemical substance/The level of expressed mRNA in the absence of chemical substance,"yeast gene YIL041W, cultured two hours with substance",0.5
same,The level of expressed mRNA in the presence of chemical substance/The level of expressed mRNA in the absence of chemical substance,"yeast gene YIL087C, cultured two hours with substance",1.4
same,The level of expressed mRNA in the presence of chemical substance/The level of expressed mRNA in the absence of chemical substance,"yeast gene YJL057C, cultured two hours with substance",1.5
same,The level of expressed mRNA in the presence of chemical substance/The level of expressed mRNA in the absence of chemical substance,"yeast gene YJL066C, cultured two hours with substance",0.8
same,The level of expressed mRNA in the presence of chemical substance/The level of expressed mRNA in the absence of chemical substance,"yeast gene YJL082W, cultured two hours with substance",1.7
same,The level of expressed mRNA in the presence of chemical substance/The level of expressed mRNA in the absence of chemical substance,"yeast gene YJL151C, cultured two hours with substance",1.3
same,The level of expressed mRNA in the presence of chemical substance/The level of expressed mRNA in the absence of chemical substance,"yeast gene YJL152W, cultured two hours with substance",1.6
same,The level of expressed mRNA in the presence of chemical substance/The level of expressed mRNA in the absence of chemical substance,"yeast gene YJL161W, cultured two hours with substance",1.1
same,The level of expressed mRNA in the presence of chemical substance/The level of expressed mRNA in the absence of chemical substance,"yeast gene YJL171C, cultured two hours with substance",1.0
same,The level of expressed mRNA in the presence of chemical substance/The level of expressed mRNA in the absence of chemical substance,"yeast gene YJR008W, cultured two hours with substance",1.4
same,The level of expressed mRNA in the presence of chemical substance/The level of expressed mRNA in the absence of chemical substance,"yeast gene YJR054W, cultured two hours with substance",1.0
same,The level of expressed mRNA in the presence of chemical substance/The level of expressed mRNA in the absence of chemical substance,"yeast gene YKL071W, cultured two hours with substance",1.1
